Where two headings read alike, the source gives them in different places.
Key:
HIV-1 84V90M = experiment: microbe, parasite or virus in culture; format: cell-based
WT HIV-1 [1] = experiment: microbe, parasite or virus in culture; format: cell-based
84V90M HIV protease = 84V90M HIV protease (Human immunodeficiency virus type 1 group M subtype B, UniProt P04585, I572V/L578M); experiment: biochemical; parameters: species or system HIV-1
HIV-1 30N82I88D = experiment: microbe, parasite or virus in culture; format: cell-based; details: Human immunodeficiency virus 1, read-out: Cell-based assay (MT-4) EC50/nM 30N82I88D
[2] = tested on: recombinant HIV-1 48V 54V 71V 82S; experiment: microbe, parasite or virus in culture; format: cell-based
[3] = tested on: recombinant HIV-1 30N 50S 82I 88D; experiment: microbe, parasite or virus in culture; format: cell-based
[4] = tested on: recombinant HIV-1 10I 48V 54V 82A; experiment: microbe, parasite or virus in culture; format: cell-based
WT HIV-1 [5] = experiment: microbe, parasite or virus in culture; format: cell-based; remark: listed apart in the source
[6] = tested on: recombinant HIV-1 10I 48V 71V 82A 90M; experiment: microbe, parasite or virus in culture; format: cell-based
[7] = tested on: recombinant HIV-1 46I 47V 50V; experiment: microbe, parasite or virus in culture; format: cell-based
HIV-1 48V54V82A = experiment: microbe, parasite or virus in culture; format: cell-based
HIV-1 46I50V = experiment: microbe, parasite or virus in culture; format: cell-based
HIV-1 48V54V82S = experiment: microbe, parasite or virus in culture; format: cell-based; details: Human immunodeficiency virus 1, read-out: Cell-based assay (MT-4) EC50/nM 48V54V82S
HIV-1 48V82A90M = experiment: microbe, parasite or virus in culture; format: cell-based; details: Human immunodeficiency virus 1, read-out: Cell-based assay (MT-4) EC50/nM 48V82A90M
[8] = tested on: recombinant HIV-1 10I 84V 71V 73S 90M; experiment: microbe, parasite or virus in culture; format: cell-based
[9] = tested on: wild-type HIV-1 strain IIIB; experiment: microbe, parasite or virus in culture; format: cell-based; details: Human immunodeficiency virus 1, IIIB
[10] = tested on: recombinant HIV-1 strains with resistance mutations in the protease gene; experiment: Cross-Resistance Profile Assay, whole panel; format: cell-based; details: {}
[11] = Human immunodeficiency virus 1, read-out: Cell-based assay (MT-4) EC50/nM 84V90M
[12] = Human immunodeficiency virus 1, read-out: Cell-based assay (MT-4) EC50/nM WT
[13] = MT-4 cells, strain printed as 48V 54V 82S, read-out: Cell-based assay (MT-4) EC50/nM 48V 54V 82S
[14] = MT-4 cells, strain printed as 30N 82I 88D, read-out: Cell-based assay (MT-4) EC50/nM 30N 82I 88D
[15] = MT-4 cells, strain printed as 48V 54V 82A, read-out: Cell-based assay (MT-4) EC50/nM 48V 54V 82A
[16] = read-out: Cell-based assay (MT-4) EC50/nM 48V 82A 90M, MT-4 cells, strain printed as 48V 82A 90M
[17] = MT-4 cells, strain printed as 47I50V, read-out: Cell-based assay (MT-4) EC50/nM 47I 50V
[18] = Human immunodeficiency virus 1, read-out: Cell-based assay (MT-4) EC50/nM 48V54V82A
[19] = Human immunodeficiency virus 1, read-out: Cell-based assay (MT-4) EC50/nM 46I50V
[20] = Human immunodeficiency virus 1, MT4, read-out: Cell-based assay (MT-4) EC50/nM 48V 54V 82S
[21] = Human immunodeficiency virus 1, MT4, read-out: Cell-based assay (MT-4) EC50/nM 30N 82I 88D
[22] = Human immunodeficiency virus 1, MT4, read-out: Cell-based assay (MT-4) EC50/nM 84V 90M
[23] = Human immunodeficiency virus 1, MT4, read-out: Cell-based assay (MT-4) EC50/nM 48V 54V 82A
[24] = Human immunodeficiency virus 1, MT4, read-out: Cell-based assay (MT-4) EC50/nM WT
[25] = Human immunodeficiency virus 1, MT4, read-out: Cell-based assay (MT-4) EC50/nM 48V 82A 90M
[26] = Human immunodeficiency virus 1, MT4, read-out: Cell-based assay (MT-4) EC50/nM 47I 50V
[27] = read-out: Cell-based assay (MT-4) EC50/nM WT

O=C(O)c1cccc(CN2C(=O)N(Cc3ccc(O)cc3)C(Cc3ccccc3)C(O)C(O)C2Cc2ccccc2)c1 (stereo not shown)
EC50 (HIV-1 84V90M; [11]): > 6000 nM
EC50 (WT HIV-1 [1]; [12]): 3060 nM
IC50 (84V90M HIV protease): 174 nM
EC50 (HIV-1 30N82I88D): 887 nM

Nc1n[nH]c2ccc(CN3C(=O)N(Cc4cccc(C(=O)O)c4)C(Cc4ccccc4)C(O)C(O)C3Cc3ccccc3)cc12 (stereo not shown)
EC50 (HIV-1 84V90M; [11]): > 6000 nM
IC50 (84V90M HIV protease): 27 nM
EC50 (HIV-1 30N82I88D): > 6000 nM

CCOP(=O)(COc1ccc(CC2C(O)C(O)C(Cc3ccccc3)N(Cc3ccccc3)C(=O)N2Cc2ccccc2)cc1)OCC (stereo not shown)
EC50 [2, 13]: 1900 nM
EC50 [3, 14]: 293 nM
EC50 [4, 15]: 1440 nM
EC50 (WT HIV-1 [5]; MT-4 cells, WT, read-out: Cell-based assay (MT-4) EC50/nM WT): 107 nM
EC50 [6, 16]: 3290 nM
EC50 [7, 17]: 589 nM

Nc1n[nH]c2ccc(CN3C(=O)N(CCCCOCP(=O)(O)O)C(Cc4ccccc4)C(O)C(O)C3Cc3ccccc3)cc12 (stereo not shown) [CH2 OCH2PO3H2]
EC50 (HIV-1 84V90M; [11]): > 4240 nM
EC50 (WT HIV-1 [1]; [12]): 1760 nM
IC50 (84V90M HIV protease): 205 nM

CCOP(=O)(COCCCCN1C(=O)N(Cc2ccc3[nH]nc(N)c3c2)C(Cc2ccccc2)C(O)C(O)C1Cc1ccccc1)OCC (stereo not shown) [CH2OCH2PO3Et2]
EC50 (HIV-1 48V54V82A; [18]): 430 nM
EC50 (HIV-1 84V90M; [11]): 3300 nM
EC50 (WT HIV-1 [1]; [12]): 119 nM
IC50 (84V90M HIV protease): 123 nM
EC50 (HIV-1 30N82I88D): 267 nM

CCOP(=O)(COc1ccc(CC2C(O)C(O)C(Cc3ccccc3)N(Cc3ccc(O)cc3)C(=O)N2Cc2ccc(O)cc2)cc1)OCC (stereo not shown) [H, Ph-pOH, OCH2PO3Et2]
EC50 (HIV-1 48V54V82A; [18]): 128 nM
EC50 (HIV-1 46I50V; [19]): 144 nM
EC50 (HIV-1 48V54V82S): 198 nM
EC50 (HIV-1 48V82A90M): 126 nM
EC50 (HIV-1 30N82I88D): 90 nM

CCOP(=O)(COc1ccc(CC2C(O)C(O)C(Cc3ccccc3)N(Cc3cccc(N)c3)C(=O)N2Cc2cccc(N)c2)cc1)OCC (stereo not shown) [H/Ph-mNH2/OCH2PO3Et2]
EC50 [2, 20]: 146 nM
EC50 [3, 21]: 16 nM
EC50 [8, 22]: 328 nM
EC50 [4, 23]: 168 nM
EC50 (WT HIV-1 [5]; [24]): 65 nM
EC50 [6, 25]: 74 nM
EC50 [7, 26]: 46 nM

CCOP(=O)(COc1ccc(CC2C(O)C(O)C(Cc3ccccc3)N(Cc3ccc(O)cc3)C(=O)N2Cc2ccc(O)cc2)cc1)OCC (stereo not shown) [H/Ph-pOH/OCH2PO3Et2]
EC50 [2, 20]: 222 nM
EC50 [3, 21]: 90 nM
EC50 [4, 23]: 128 nM
EC50 (WT HIV-1 [5]; [24]): 65 nM
EC50 [6, 25]: 146 nM
EC50 [7, 26]: 144 nM

O=C1N(Cc2ccccc2)C(Cc2ccccc2)C(O)C(O)C(Cc2ccc(O)cc2)N1Cc1ccccc1 (stereo not shown) [H/Ph/OH]
EC50 [3, 21]: 2950 nM
EC50 [8, 22]: > 6000 nM
EC50 [4, 23]: > 6000 nM
EC50 (WT HIV-1 [5]; [24]): 1260 nM

CC(C)(C)NC(=O)[C@@H]1CN(Cc2cccnc2)CCN1C[C@@H](O)C[C@@H](Cc1ccccc1)C(=O)N[C@H]1c2ccccc2C[C@H]1O [Indinavir, reference compound]
EC50 [9]: < 50 nM
Total No. of Resistant Viruses [10]: 8

CCOP(=O)(COCCCN1C(=O)N(Cc2ccc3[nH]nc(N)c3c2)C(Cc2ccccc2)C(O)C(O)C1Cc1ccccc1)OCC (stereo not shown) [OCH2PO3Et2]
EC50 (HIV-1 48V54V82A; [18]): 175 nM
EC50 (HIV-1 46I50V; [19]): 138 nM
EC50 (HIV-1 84V90M; [11]): > 6000 nM
EC50 (WT HIV-1 [1]; [12]): 356 nM
IC50 (84V90M HIV protease): 157 nM
EC50 (HIV-1 30N82I88D): 145 nM

Nc1n[nH]c2ccc(CN3C(=O)N(CCCOCP(=O)(O)O)C(Cc4ccccc4)C(O)C(O)C3Cc3ccccc3)cc12 (stereo not shown) [OCH2PO3H2]
EC50 (HIV-1 84V90M; MT-4, 84V90M, read-out: Cell-based assay (MT-4) EC50/nM 84V90M): > 6000 nM
EC50 (WT HIV-1 [1]; [27]): 1070 nM

CCOP(=O)(CCNC(=O)Oc1ccc(CC2C(O)C(O)C(Cc3ccc(OC)cc3)N(Cc3cccc(N)c3)C(=O)N2Cc2cccc(N)c2)cc1)OCC (stereo not shown) [OCH3/Ph-mNH2/OCONH(CH2)2PO3Et2]
EC50 [2, 13]: 214 nM
EC50 [3, 14]: 77 nM
EC50 ([8]; read-out: Cell-based assay (MT-4) EC50/nM 84V 90M, MT-4 cells, strain printed as 84V 90M): 2260 nM
EC50 [4, 15]: 262 nM
EC50 [6, 16]: 215 nM
EC50 [7, 17]: 184 nM

CCOP(=O)(COc1ccc(CC2C(O)C(O)C(Cc3ccc(OC)cc3)N(Cc3ccc(O)cc3)C(=O)N2Cc2ccc(O)cc2)cc1)OCC (stereo not shown) [OCH3/Ph-pOH/OCH2PO3Et2]
EC50 [2, 20]: 129 nM
EC50 [3, 21]: 25 nM
EC50 [8, 22]: 148 nM
EC50 [4, 23]: 70 nM
EC50 (WT HIV-1 [5]; [24]): 30 nM
EC50 [6, 25]: 54 nM
EC50 [7, 26]: 90 nM

CCOP(=O)(COc1ccc(CC2C(O)C(O)C(Cc3ccc(O)cc3)N(Cc3ccc(O)cc3)C(=O)N2Cc2ccc(O)cc2)cc1)OCC (stereo not shown) [OH, Ph-pOH, OCH2PO3Et2]
EC50 (HIV-1 48V54V82A; [18]): 986 nM
EC50 (HIV-1 46I50V; [19]): 1110 nM
EC50 (HIV-1 84V90M; [11]): 1910 nM
EC50 (WT HIV-1 [1]; [12]): 285 nM
IC50 (84V90M HIV protease): 18 nM
EC50 (HIV-1 30N82I88D): 211 nM

CC(C)c1nc(CN(C)C(=O)N[C@H](C(=O)N[C@@H](Cc2ccccc2)C[C@H](O)[C@H](Cc2ccccc2)NC(=O)OCc2cncs2)C(C)C)cs1 [Ritonavir, reference compound]
EC50 [9]: < 50 nM
Total No. of Resistant Viruses [10]: 10

CC(C)(C)NC(=O)[C@@H]1C[C@@H]2CCCC[C@@H]2CN1C[C@@H](O)[C@H](Cc1ccccc1)NC(=O)[C@H](CC(N)=O)NC(=O)c1ccc2ccccc2n1 [Saquinavir, reference compound]
EC50 [9]: < 50 nM
Total No. of Resistant Viruses [10]: 4

CCOP(=O)(CCCNC(=O)c1cccc(CN2C(=O)N(Cc3ccc4[nH]nc(N)c4c3)C(Cc3ccccc3)C(O)C(O)C2Cc2ccccc2)c1)OCC (stereo not shown) [drawing 809]
EC50 (HIV-1 48V54V82A; [18]): 240 nM
EC50 (HIV-1 46I50V; [19]): 319 nM
EC50 (HIV-1 84V90M; [11]): 476 nM
EC50 (WT HIV-1 [1]; [12]): 188 nM
IC50 (84V90M HIV protease): 10 nM
EC50 (HIV-1 30N82I88D): 666 nM

Nc1n[nH]c2ccc(CN3C(=O)N(Cc4cccc(OCc5ccccc5)c4)C(Cc4ccccc4)C(O)C(O)C3Cc3ccccc3)cc12 (stereo not shown) [m-OBn]
EC50 (HIV-1 48V54V82A; MT-4, 48V54V82A, read-out: Cell-based assay (MT-4) EC50/nM 48V54V82A): 709 nM
EC50 (HIV-1 46I50V; MT-4, 46I50V, read-out: Cell-based assay (MT-4) EC50/nM 46I50V): 601 nM
EC50 (WT HIV-1 [1]; [27]): 218 nM

O=C1N(Cc2ccccc2)[C@H](Cc2ccccc2)[C@H](O)[C@@H](O)[C@@H](Cc2ccccc2)N1Cc1ccc2[nH]ncc2c1 [reference compound]
EC50 (HIV-1 48V54V82A; [18]): 705 nM
EC50 (HIV-1 46I50V; [19]): 772 nM
EC50 (HIV-1 84V90M; [11]): 2310 nM
EC50 (WT HIV-1 [1]; [12]): 193 nM
IC50 (84V90M HIV protease): 43.3 nM
EC50 (HIV-1 30N82I88D): 281 nM

From patent publication US20040121316A1 (priority 2002, published 2004)
